In US5075303A, “Pyridine derivatives” (John Wyeth & Brother Limited, priority 1989, dated 1991):

Legend:
5-HT1A receptor = molecular target: T1, 5-HT1A receptor (Rattus norvegicus, UniProt P19327); test: 5-HT1A receptor binding activity in rat hippocampal membrane homogenate
T1 construct: rat hippocampal membrane homogenate; from tissue; host or cells: rat hippocampus (membrane homogenate)
T1 sequence (P19327 1-422): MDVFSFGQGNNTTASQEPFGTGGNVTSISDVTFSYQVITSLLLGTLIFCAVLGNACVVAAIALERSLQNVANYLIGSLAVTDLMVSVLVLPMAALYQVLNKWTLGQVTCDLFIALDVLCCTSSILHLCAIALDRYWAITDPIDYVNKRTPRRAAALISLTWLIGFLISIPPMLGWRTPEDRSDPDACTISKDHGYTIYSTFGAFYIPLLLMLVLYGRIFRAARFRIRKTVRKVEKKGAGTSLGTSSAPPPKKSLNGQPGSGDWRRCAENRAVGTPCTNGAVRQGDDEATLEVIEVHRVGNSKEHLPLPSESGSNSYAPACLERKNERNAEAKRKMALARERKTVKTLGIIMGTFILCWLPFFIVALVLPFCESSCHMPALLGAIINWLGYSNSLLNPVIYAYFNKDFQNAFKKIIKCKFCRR
Protocol: The compounds of the invention were tested for 5 HT1A receptor binding activity in rat hippocampal membrane homogenate by the method of B S Alexander and M D Wood, J Pharm Pharmacol, 1988, 40, 888-891.

5-HT1 receptor = molecular target: T2, 5-HT1 receptor (Rattus norvegicus, UniProt P19327); test: 5-HT1 receptor agonist activity in vivo: 5-HT related behaviour in rats following i.v. administration; settings: iv, calculated by the method of Kimball et al
T2 construct: 5-HT related behaviour in rats following i.v. administration; from tissue; host or cells: living rat (in vivo test, endogenous receptor)
T2 sequence (P19327 1-422): T1 sequence (P19327 1-422)
Protocol: The compounds are evaluated for 5-HT1 receptor agonist activity in vivo by a method involving the assessment of 5-HT related behaviour in rats following i.v. administration of the test compound (M D Tricklebank et al, European Journal of Pharmacol, 1985, 106, 271-282).

5HT1A receptor = molecular target: T3, 5HT1A receptor (Cavia porcellus, UniProt A0A286Y074); test: antagonism of 8-hydroxy-2-(di-n-propylamino)tetralin in the guinea-pig ileum in vitro; format: biochemical
T3 construct: in the guinea-pig ileum in vitro; from tissue; host or cells: guinea-pig ileum
T3 sequence (A0A286Y074 1-421): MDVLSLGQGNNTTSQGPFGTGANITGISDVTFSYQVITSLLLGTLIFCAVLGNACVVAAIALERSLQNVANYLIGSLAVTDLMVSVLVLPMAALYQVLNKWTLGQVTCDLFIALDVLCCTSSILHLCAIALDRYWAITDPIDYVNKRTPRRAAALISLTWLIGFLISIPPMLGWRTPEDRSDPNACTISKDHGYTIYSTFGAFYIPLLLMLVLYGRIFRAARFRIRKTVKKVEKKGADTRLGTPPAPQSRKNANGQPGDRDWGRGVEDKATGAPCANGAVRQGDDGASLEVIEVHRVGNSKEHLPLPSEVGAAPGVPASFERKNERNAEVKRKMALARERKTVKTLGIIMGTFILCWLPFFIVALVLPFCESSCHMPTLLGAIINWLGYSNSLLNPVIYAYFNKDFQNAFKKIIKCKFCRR

IC50 (5-HT1A receptor)	ED50 (5-HT1 receptor)	pA2 (5HT1A receptor)	Structure (SMILES)
0.131 µM	–	–	CN(CCNC(=O)Cc1c(F)cccc1F)C1CCc2cccnc2C1 (stereo not drawn) [Example 35, N-{2-[N'-(5,6,7,8-Tetrahydroquinolin-7 yl)-N'-methyl]aminoethyl}-2,6-difluorophenylacetamide]
0.042 µM	–	–	CCCN(CC1COc2ccccc2O1)C1CCc2cccnc2C1 (stereo not drawn) [Example 15]
0.137 µM	–	–	CN(C)C1CCc2cccnc2C1 (stereo not drawn) [Example 3, 5,6,7,8-Tetrahydro-7-dimethylaminoquinoline]
0.138 µM	0.62 mg/kg	–	CCCN(CCC)C1CCc2cccnc2C1 (stereo not drawn) [Example 12, 5,6,7,8-Tetrahydro-7--(1,1-dipropylamino)quinoline]
0.136 µM	1.1 mg/kg	–	c1cnc2c(c1)CCC(N1CCC1)C2 (stereo not drawn) [Example 50, 7-Azetidino-5,6,7,8-tetrahydroquinoline]
0.026 µM	0.81 mg/kg	7.7	CN(CCCCN1C(=O)CC2(CCCC2)CC1=O)C1CCc2cccnc2C1 (stereo not drawn) [Example 16, 8-{4-[N-(5,6,7,8-Tetrahydroquinolin-7 yl) N-methyl]aminobutyl}-8-azaspiro[4.5]decan 7,9-dione]
0.068 µM	–	–	CN(CCC1COc2ccccc2O1)C1CCc2cccnc2C1 (stereo not drawn) [Example 20, 7-Amino-5,6,7,8-tetrahydro N-{2 [2 (2,3 dihydro-1,4-benzodioxinyl)]ethyl}-N-methylquinoline]
0.009 µM	0.52 mg/kg	–	CCCN(CCNC(=O)c1ccc(F)cc1)C1CCc2cccnc2C1 (stereo not drawn) [Example 19, 4-Fluoro-N-[2-[N --(5,6,7,8-tetrahydroquinoin-7 yl)-N'-propyl]aminoethyl}benzamide]
0.055 µM	0.57 mg/kg	–	c1cnc2c(c1)CCC(N1CCCC1)C2 (stereo not drawn) [Example 38, 5,6,7,8-Tetrahydro 7-pyrrolidinoquinoline]
